Here are results for 8 compounds from ChEMBL document CHEMBL3137667, “[Drug-induced liver injury; fourteenth updated edition of the bibliographic database of liver injuries and related drugs]” (Gastroenterol Clin Biol, 2004).

Where a SMILES comes first, the peptide text is derived from it. Bridges are numbered along the chain shown (N, C = ends). [ ]: non-standard residue; d: D form. The star is where a group is joined. NMePhe(4-NMe2) = CN[C@@H](Cc1ccc(N(C)C)cc1)C(=O)O; Pip(4-oxo) = O=C1CCN[C@H](C(=O)O)C1; Picolinoyl(3-OH) = O=C(c1ncccc1O)*; Phg = N[C@H](C(=O)O)c1ccccc1; dAbu = CC[C@@H](N)C(=O)O

Data set [1] in a line: Highest frequency of moderate liver toxicity observed during clinical trials, expressed as a percentage. [column '% BIOL' in source]. The note with it: human.
Data set [2] in a line: Highest frequency of acute liver toxicity observed during clinical trials, expressed as a percentage. [column '% AIGUE' in source]. To be noted: human.
Data set [3] can be described thus: Times to onset, minimal and maximal, observed in the indexed observations. [column 'DELAI' in source]. The note with it: human.
For data set [4] the following is noted: human, serum.
For data set [5] the following is noted: human, serum. This is another data set of the same source.
For data set [6] the following is noted: human.
For data set [7] the following is noted: human. The source holds these as a separate data set.
For data set [8] the following is noted: human. The source holds these as a separate data set.
The conditions of data set [9]: human, serum, 4383 h.
For data set [10] the following is noted: human. The source holds these as a separate data set.
The conditions of data set [11]: human. The source holds these as a separate data set.
For data set [12] the following is noted: human. The source holds these as a separate data set.
For data set [13] the following is noted: human. This is another data set of the same source.
The conditions of data set [14]: human. This is another data set of the same source.
The conditions of data set [15]: human. The source holds these as a separate data set.
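For Hepatotoxicity (association with vascular disease) in this document: count of indexed literature references reporting vascular liver injury in humans, e.g. peliosis hepatitis, hepatic veno-occlusive disease or Budd-Chiari syndrome.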
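For Hepatotoxicity (benign tumour) in this document: value is a count of indexed literature references citing a benign tumour confirmed by histopathology.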
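For Hepatotoxicity (choleostasis) in this document: human cholestatic liver injury, shown by histopathology or by peak ALT or AST elevation over alkaline phosphatase ratio below 2, value counts indexed literature reports.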
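For Hepatotoxicity (chronic liver disease) in this document: chronic liver injury confirmed by histopathology or persistently raised serum aminotransferase activity beyond 6 months, value given as the count of indexed literature references.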
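For Hepatotoxicity (cirrhosis) in this document: value is a count of indexed literature references reporting cirrhosis confirmed by histopathology.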
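For Hepatotoxicity (cytolytic) in this document: human cytolytic liver injury, shown by histopathology or by a ratio above 5 of peak ALT or AST elevation to alkaline phosphatase elevation, value counts indexed references.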
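For Hepatotoxicity (granulomatous hepatitis) in this document: value is a count of indexed literature references reporting granulomatous liver disease confirmed by histopathology.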
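For Hepatotoxicity (malignant tumour) in this document: malignant tumour confirmed by histopathology, value gives the count of indexed literature references reporting it.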
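For Hepatotoxicity (severe hepatitis) in this document: human clinical data: severe hepatitis, meaning potentially life-threatening liver failure or clinically observed cases, the value counts how many indexed literature references report it.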
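For Hepatotoxicity (steatosis) in this document: steatosis confirmed by histopathology, value is the count of indexed references.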

As for `COc1ccc2c(c1)c(CC(=O)OCC(=O)O)c(C)n2C(=O)c1ccc(Cl)cc1` [ACEMETACIN], the “Hepatotoxicity (moderate)” value in data set [1] turned out to be 0%; in data set [4], 0. The figures for the “Hepatotoxicity (acute)” value in data set [2] and in [5] were 0% and 1, respectively. Moreover, the “Hepatotoxicity (time to onset)” value in data set [3] came to 12 weeks. Moreover, in data set [6], the “Hepatotoxicity (cytolytic)” value was found to be 0. Further, the “Hepatotoxicity (choleostasis)” value in [7] was determined as 1. Besides, the “Hepatotoxicity (severe hepatitis)” value in data set [8] came to 0. In addition, the “Hepatotoxicity (chronic liver disease)” value in data set [9] came out at 0. In addition, the “Hepatotoxicity (cirrhosis)” value in data set [10] stood at 0. The “Hepatotoxicity (granulomatous hepatitis)” value in [11] amounted to 0. Further, in data set [12], the “Hepatotoxicity (association with vascular disease)” value is 0. Besides, in [13], the “Hepatotoxicity (steatosis)” value was found to be 0. Also, the “Hepatotoxicity (malignant tumour)” value in data set [14] is listed as 0. In addition, in [15], the “Hepatotoxicity (benign tumour)” value amounted to 0.

As for `CS[C@H]1SC[C@H]2C(=O)N(C)[C@@H](C(C)C)C(=O)OC[C@@H](NC(=O)c3cnc4ccccc4n3)C(=O)N[C@@H](C)C(=O)N(C)[C@@H]1C(=O)N(C)[C@@H](C(C)C)C(=O)OC[C@@H](NC(=O)c1cnc3ccccc3n1)C(=O)N[C@@H](C)C(=O)N2C` [ECHINOMYCIN], the “Hepatotoxicity (moderate)” value is 29.4% in data set [1] and 8 in data set [4]. The entries for the “Hepatotoxicity (acute)” value in data set [2] and in data set [5] were 4.8% and 4, respectively. In addition, the “Hepatotoxicity (time to onset)” value in data set [3] was 4 days - 19 days. For the same compound, in data set [6], the “Hepatotoxicity (cytolytic)” value came to 3. Besides, the “Hepatotoxicity (choleostasis)” value in data set [7] came out at 0. Moreover, the “Hepatotoxicity (severe hepatitis)” value in [8] is listed as 1. In addition, the “Hepatotoxicity (chronic liver disease)” value in [9] came out at 0. Further, the “Hepatotoxicity (cirrhosis)” value in data set [10] turned out to be 0. Moreover, in data set [11], the “Hepatotoxicity (granulomatous hepatitis)” value was 0. For the same compound, in data set [12], the “Hepatotoxicity (association with vascular disease)” value is on record as 0. In data set [13], the “Hepatotoxicity (steatosis)” value is listed as 0. In addition, the “Hepatotoxicity (malignant tumour)” value in data set [14] stood at 0. For the same compound, the “Hepatotoxicity (benign tumour)” value in data set [15] was 0.

In the case of `CC(=O)N(O)CCCCCNC(=O)CCC(=O)N(O)CCCCCNC(=O)CCC(=O)N(O)CCCCCN` [DEFEROXAMINE], the “Hepatotoxicity (moderate)” value in data set [1] amounted to 28%; in data set [4], 1. For the same compound, the “Hepatotoxicity (acute)” value in data set [2] stood at 0%; in data set [5] it was 1. Further, the “Hepatotoxicity (time to onset)” value in [3] was 6 weeks. In addition, the “Hepatotoxicity (cytolytic)” value in [6] came to 1. Besides, in data set [7], the “Hepatotoxicity (choleostasis)” value is 0. The “Hepatotoxicity (severe hepatitis)” value in [8] is on record as 1. Moreover, the “Hepatotoxicity (chronic liver disease)” value in data set [9] worked out at 0. The “Hepatotoxicity (cirrhosis)” value in data set [10] worked out at 0. Also, the “Hepatotoxicity (granulomatous hepatitis)” value in data set [11] is reported as 0. Further, the “Hepatotoxicity (association with vascular disease)” value in data set [12] was 0. Besides, the “Hepatotoxicity (steatosis)” value in data set [13] is 0. Moreover, the “Hepatotoxicity (malignant tumour)” value in [14] turned out to be 0. In addition, the “Hepatotoxicity (benign tumour)” value in data set [15] is given as 0.

Regarding `N#C[C@H](O[C@@H]1O[C@H](CO[C@@H]2O[C@H](CO)[C@@H](O)[C@H](O)[C@H]2O)[C@@H](O)[C@H](O)[C@H]1O)c1ccccc1` [AMYGDALIN], the “Hepatotoxicity (moderate)” value is reported as 0% in data set [1] and 0 in [4]. Also, the “Hepatotoxicity (acute)” value in data set [2] turned out to be 0%; in data set [5], 0. For the same compound, the “Hepatotoxicity (time to onset)” value in data set [3] is 2 days. In addition, in data set [6], the “Hepatotoxicity (cytolytic)” value was 0. Further, the “Hepatotoxicity (choleostasis)” value in [7] amounted to 0. Moreover, the “Hepatotoxicity (severe hepatitis)” value in data set [8] is listed as 1. The “Hepatotoxicity (chronic liver disease)” value in data set [9] came out at 0. Further, the “Hepatotoxicity (cirrhosis)” value in data set [10] is 0. In addition, the “Hepatotoxicity (granulomatous hepatitis)” value in [11] is on record as 0. In addition, in data set [12], the “Hepatotoxicity (association with vascular disease)” value was determined as 0. In data set [13], the “Hepatotoxicity (steatosis)” value is 0. The “Hepatotoxicity (malignant tumour)” value in [14] stood at 0. Further, the “Hepatotoxicity (benign tumour)” value in data set [15] was determined as 0.

Take `CCOC(=O)[C@H](CCc1ccccc1)N[C@H]1CCc2ccccc2N(CC(=O)O)C1=O` [BENAZEPRIL]: the “Hepatotoxicity (moderate)” value amounted to 0% in [1] and 0 in [4]. The “Hepatotoxicity (acute)” value in [2] stood at 0%; in data set [5], 2. In addition, the “Hepatotoxicity (time to onset)” value in data set [3] is reported as 14 months. The “Hepatotoxicity (cytolytic)” value in data set [6] was 1. Moreover, the “Hepatotoxicity (choleostasis)” value in [7] was determined as 0. Besides, the “Hepatotoxicity (severe hepatitis)” value in data set [8] came out at 1. Besides, in [9], the “Hepatotoxicity (chronic liver disease)” value is on record as 0. In data set [10], the “Hepatotoxicity (cirrhosis)” value is 0. Also, the “Hepatotoxicity (granulomatous hepatitis)” value in data set [11] is given as 0. Besides, the “Hepatotoxicity (association with vascular disease)” value in data set [12] is reported as 0. In data set [13], the “Hepatotoxicity (steatosis)” value worked out at 0. Also, the “Hepatotoxicity (malignant tumour)” value in [14] came out at 0. For the same compound, in [15], the “Hepatotoxicity (benign tumour)” value was 0.

As for `Clc1ccccc1C(c1ccccc1)(c1ccccc1)n1ccnc1` [CLOTRIMAZOLE], the results for the “Hepatotoxicity (moderate)” value in data set [1] and in data set [4] were 40% and 8, respectively. For the same compound, the “Hepatotoxicity (acute)” value in data set [2] came out at 0%; in data set [5], 0. Moreover, the “Hepatotoxicity (time to onset)” value in [3] was determined as 17 days. For the same compound, in data set [6], the “Hepatotoxicity (cytolytic)” value amounted to 0. Besides, the “Hepatotoxicity (choleostasis)” value in data set [7] is reported as 0. For the same compound, in [8], the “Hepatotoxicity (severe hepatitis)” value was 0. Besides, the “Hepatotoxicity (chronic liver disease)” value in [9] is listed as 0. In [10], the “Hepatotoxicity (cirrhosis)” value is reported as 0. For the same compound, in data set [11], the “Hepatotoxicity (granulomatous hepatitis)” value was 0. Besides, the “Hepatotoxicity (association with vascular disease)” value in data set [12] is on record as 0. Also, in data set [13], the “Hepatotoxicity (steatosis)” value amounted to 0. In data set [14], the “Hepatotoxicity (malignant tumour)” value is reported as 0. Besides, in data set [15], the “Hepatotoxicity (benign tumour)” value was determined as 0.

Regarding `CC[C@H]1NC(=O)[C@@H](NC(=O)c2ncccc2O)[C@@H](C)OC(=O)[C@H](c2ccccc2)NC(=O)[C@@H]2CC(=O)CCN2C(=O)[C@H](Cc2ccc(N(C)C)cc2)N(C)C(=O)[C@@H]2CCCN2C1=O` [PRISTINAMYCIN 1A] ({Picolinoyl(3-OH)}-T[dAbu]P[NMePhe(4-NMe2)][Pip(4-oxo)][Phg]; ester 1-C), the “Hepatotoxicity (moderate)” value turned out to be 0% in data set [1] and 0 in [4]. For the same compound, the entries for the “Hepatotoxicity (acute)” value in data set [2] and in data set [5] were 0% and 1, respectively. The “Hepatotoxicity (time to onset)” value in [3] is recorded as 1.5 months. In addition, in data set [6], the “Hepatotoxicity (cytolytic)” value is 1. The “Hepatotoxicity (choleostasis)” value in [7] amounted to 0. Also, the “Hepatotoxicity (severe hepatitis)” value in data set [8] was 0. The “Hepatotoxicity (chronic liver disease)” value in data set [9] is on record as 0. In data set [10], the “Hepatotoxicity (cirrhosis)” value was 0. Also, the “Hepatotoxicity (granulomatous hepatitis)” value in [11] stood at 0. Besides, the “Hepatotoxicity (association with vascular disease)” value in data set [12] is on record as 0. Further, the “Hepatotoxicity (steatosis)” value in data set [13] came to 0. For the same compound, the “Hepatotoxicity (malignant tumour)” value in [14] stood at 0. For the same compound, the “Hepatotoxicity (benign tumour)” value in [15] stood at 0.

Consider `C=CCC(C(=O)NC(N)=O)C(C)C` (stereo not given) [APRONAL], for which the entries for the “Hepatotoxicity (moderate)” value in data set [1] and in [4] were 0% and 0, respectively. For the same compound, the “Hepatotoxicity (acute)” value in data set [2] came out at 0%; in data set [5] it was 2. Moreover, the “Hepatotoxicity (time to onset)” value in [3] came out at 2 days - 2 years. Further, the “Hepatotoxicity (cytolytic)” value in data set [6] stood at 0. Moreover, the “Hepatotoxicity (choleostasis)” value in data set [7] worked out at 0. Further, the “Hepatotoxicity (severe hepatitis)” value in [8] is on record as 0. For the same compound, in [9], the “Hepatotoxicity (chronic liver disease)” value stood at 0. Also, the “Hepatotoxicity (cirrhosis)” value in [10] came out at 0. The “Hepatotoxicity (granulomatous hepatitis)” value in [11] was found to be 2. The “Hepatotoxicity (association with vascular disease)” value in [12] is given as 0. Moreover, the “Hepatotoxicity (steatosis)” value in data set [13] was determined as 0. In addition, the “Hepatotoxicity (malignant tumour)” value in data set [14] came out at 0. The “Hepatotoxicity (benign tumour)” value in [15] came to 0.
